Laboratory results reported in PubChem BioAssay (NCI).
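The compound was tested at five concentrations on cells cultured in 96-well plates, with a 48-hour exposure period. GI50 = concentration required for 50% inhibition of growth. At the TGI there is no net growth.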

Tests used:
Assay in all cases: NCI-60 cell line screen, 48 h
[1] = test system: HCC-2998 colon
[2] = test system: SNB-75 CNS
[3] = test system: MDA-N
[4] = test system: HOP-92 NSCLC
[5] = test system: NCI-H23 lung
[6] = test system: A498 renal
[7] = test system: HCT-15 colon
[8] = test system: SK-MEL-5 melanoma
[9] = test system: MDA-MB-231 breast
[10] = test system: 786-0 renal
[11] = test system: SN12C renal

| Compound | TGI [1] | TGI [2] | TGI [3] | TGI [4] | TGI [5] | TGI [6] | TGI [7] | TGI [8] | TGI [9] | TGI [10] | TGI [11] | GI50 [2] |
| --- | --- | --- | --- | --- | --- | --- | --- | --- | --- | --- | --- | --- |
| CCCCCCCCCCCCCCCCCCNc1ccn(C2OC(COP(=O)(O)OCC3OC(n4cc(F)c(NCCCCCCCCCCCCCCCCCC)nc4=O)CC3O)C(O)C2O)c(=O)n1 (configuration not stated) | > 100 µM | > 100 µM | > 100 µM | > 100 µM | > 100 µM | > 100 µM | > 100 µM | > 100 µM | > 100 µM | > 100 µM | > 100 µM |  |
| CCOC(=O)c1cnc2oc3ccc(O)cc3c2c1-c1ccccc1 | > 100 µM | 52.4 µM | > 100 µM | > 100 µM | > 100 µM | > 100 µM | > 100 µM | > 100 µM | 84.5 µM | > 100 µM | > 100 µM | 16.5 µM |
| COC(=O)c1c(OC(C)=O)ccc2c1c1c(n2C)C(=O)c2ccccc2C1=O | 63.5 µM | 41.3 µM | > 100 µM | 9.58 µM | 61.2 µM | 41.7 µM | > 100 µM | 47 µM | > 100 µM | > 100 µM | > 100 µM |  |
| CC1(C)CC(C)(C)C1=NNC(N)=O | > 100 µM | > 100 µM | > 100 µM | > 100 µM | > 100 µM | > 100 µM | > 100 µM | > 100 µM | > 100 µM | > 100 µM | > 100 µM |  |
| O=C(Nc1nc2ccccc2s1)c1cc([N+](=O)[O-])ccc1Cl | 53.6 µM | > 100 µM | > 31.6 µM | > 38.9 µM | > 43.4 µM | > 100 µM | > 41.4 µM | 25.1 µM | > 100 µM | > 58.6 µM | > 100 µM |  |
| CCOC(=O)c1cc2c(C(=O)c3ccc([N+](=O)[O-])cc3)c(C(C)=O)ccc2[nH]1 | > 100 µM | 32.9 µM | > 100 µM | 44.6 µM | > 100 µM | > 100 µM | > 100 µM | > 100 µM | 53.4 µM | > 100 µM | > 100 µM |  |
| CCOP(=O)(OCC)C1CC(n2cc(C)c(=O)[nH]c2=O)OC1CO (configuration not stated) | > 100 µM | > 100 µM | > 100 µM | > 100 µM | > 100 µM | > 100 µM | > 100 µM | > 100 µM | > 100 µM | > 100 µM | > 100 µM |  |
| CC1(C)[C@H]2CC[C@]1(C)[C@H](OC(=O)NNC(=O)O[C@@H]1C[C@@H]3CC[C@@]1(C)C3(C)C)C2 | 27.7 µM | 28.1 µM | 24.8 µM | 33.6 µM | 34.9 µM | 33.8 µM | 27.5 µM | 25.5 µM | 27.6 µM | 50.3 µM | 24.7 µM |  |
| CC1=NN(c2nc(N)nc(/C(C#N)=C/c3cccn3-c3cc(Cl)cc(Cl)c3)n2)C(C)(C)C1 | > 100 µM | 99.7 µM | > 100 µM | > 100 µM | > 100 µM | > 100 µM | > 100 µM | > 100 µM | > 100 µM | > 100 µM | > 100 µM |  |
| CCOC(=O)c1c(N2CCCC2)ncn(Cc2ccccc2)c1=S | > 100 µM | > 100 µM | > 100 µM | > 100 µM | > 100 µM | > 100 µM | > 100 µM | > 100 µM | > 100 µM | > 100 µM | > 100 µM |  |
| CC1(O)CC(=O)c2c(cc3ccc(-c4c5c(c(O)c6c(O)cccc46)C(=O)CC(C)(O)C5)c(O)c3c2O)C1 (configuration not stated) | 1.07 µM | 0.773 µM | 14.2 µM | 0.815 µM | 1.35 µM | 3.53 µM | 4.08 µM | 0.495 µM | 3.93 µM | 7.64 µM | 13.1 µM |  |
| Nc1ccccc1CC(O)C(=O)O (configuration not stated) | > 100 µM | > 100 µM | > 100 µM | > 100 µM | > 100 µM | > 100 µM | > 100 µM | > 100 µM | > 100 µM | > 100 µM | > 100 µM |  |
| Cc1c2c(n(CCc3ccc(Cl)cc3)c1C)NC(c1ccccc1)C(C#N)S2(=O)=O (configuration not stated) | > 100 µM | > 100 µM | > 74.9 µM | > 100 µM | > 100 µM | > 100 µM | > 100 µM | 14.3 µM | > 59.3 µM | > 100 µM | > 100 µM |  |
| CC(=O)Oc1c2oc3ccc(Cl)cc3c(=O)c2c(O)c2ccsc12 | > 100 µM | > 100 µM | > 100 µM | > 100 µM | > 100 µM | > 100 µM | > 100 µM | > 100 µM | > 100 µM | > 100 µM | > 100 µM |  |
| C#CCSC(C=C=C)P(=O)(OC(C)C)OC(C)C (configuration not stated) | 75.1 µM | > 100 µM | > 100 µM | > 100 µM | > 100 µM | > 100 µM | > 100 µM | > 100 µM | > 100 µM | > 100 µM | 88.3 µM |  |
| O=C(O)c1nc(-c2ccccc2)[nH]c1C(=O)O | 12.8 µM | 33.6 µM | 24.4 µM | 32.4 µM | 31.8 µM | 29.1 µM | 38.8 µM | 28.6 µM | 11.3 µM | 22.5 µM | 26.6 µM |  |
